# Measurements as given in ChEMBL document CHEMBL1201862, “PubChem BioAssay data set” (2004).
# The source made the active and inactive calls.
# Legend:
# Cytochrome P450 2C19 = Cytochrome P450 2C19 (Homo sapiens, UniProt P33261); experiment: Cytochrome panel assay with activity outcomes. Panel member name: p450-cyp2c19 Compounds with AC50 equal or less than 10 uM are considered active; type: functional
# Cytochrome P450 1A2 = target: T1, Cytochrome P450 1A2 (Homo sapiens, UniProt P05177);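 note: PubChem cytochrome P450 panel assay, CYP1A2 panel member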
# T1 sequence (P05177 whole entry): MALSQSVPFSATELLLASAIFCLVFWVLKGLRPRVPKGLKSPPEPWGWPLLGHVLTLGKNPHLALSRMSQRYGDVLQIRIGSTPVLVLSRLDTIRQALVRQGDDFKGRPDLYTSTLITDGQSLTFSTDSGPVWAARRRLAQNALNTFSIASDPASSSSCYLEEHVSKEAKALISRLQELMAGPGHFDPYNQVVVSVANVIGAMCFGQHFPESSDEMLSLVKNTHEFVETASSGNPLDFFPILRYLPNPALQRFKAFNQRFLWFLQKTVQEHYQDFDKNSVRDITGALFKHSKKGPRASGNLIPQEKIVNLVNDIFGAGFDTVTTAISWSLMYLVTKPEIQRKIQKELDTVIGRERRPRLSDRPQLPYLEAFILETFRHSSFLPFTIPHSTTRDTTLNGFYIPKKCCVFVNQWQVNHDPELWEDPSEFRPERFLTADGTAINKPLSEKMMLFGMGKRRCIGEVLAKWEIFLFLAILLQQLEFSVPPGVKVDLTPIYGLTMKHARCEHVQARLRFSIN
# [1] = target: T2, Corticotropin-releasing factor receptor 2/Corticotropin-releasing factor-binding protein (Homo sapiens, UniProt P24387+Q13324); experiment: Dose Response confirmation of uHTS hits for small molecule antagonists of the CRF-binding protein and CRF-R2 receptor complex.; type: functional; conditions: read-out: IC50_Mean
# T2 sequence (Q13324 whole entry): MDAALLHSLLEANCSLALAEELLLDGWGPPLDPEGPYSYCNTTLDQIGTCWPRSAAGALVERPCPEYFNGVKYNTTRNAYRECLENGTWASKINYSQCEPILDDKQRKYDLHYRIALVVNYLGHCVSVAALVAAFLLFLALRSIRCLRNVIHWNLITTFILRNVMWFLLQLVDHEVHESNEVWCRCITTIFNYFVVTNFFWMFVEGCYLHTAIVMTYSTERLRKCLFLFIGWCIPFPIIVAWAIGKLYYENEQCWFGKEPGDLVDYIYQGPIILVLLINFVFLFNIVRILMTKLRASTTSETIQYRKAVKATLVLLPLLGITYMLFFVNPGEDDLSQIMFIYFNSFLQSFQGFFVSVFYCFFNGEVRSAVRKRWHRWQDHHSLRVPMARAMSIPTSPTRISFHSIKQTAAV
# T2 sequence (P24387 whole entry): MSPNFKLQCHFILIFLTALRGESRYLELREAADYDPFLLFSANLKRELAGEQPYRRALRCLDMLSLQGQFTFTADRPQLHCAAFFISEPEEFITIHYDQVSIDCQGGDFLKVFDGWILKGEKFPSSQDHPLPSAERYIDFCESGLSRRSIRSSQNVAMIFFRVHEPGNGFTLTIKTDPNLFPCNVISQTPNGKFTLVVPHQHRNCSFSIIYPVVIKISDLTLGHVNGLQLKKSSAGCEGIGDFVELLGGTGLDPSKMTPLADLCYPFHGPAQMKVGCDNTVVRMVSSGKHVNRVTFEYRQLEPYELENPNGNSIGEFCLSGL
# [2] = target: T2, Corticotropin-releasing factor receptor 2/Corticotropin-releasing factor-binding protein; experiment: activators of CRF receptor 2 with binding protein – uHTS hits, confirmation (AID 602473); type: functional; conditions: read-out: EC50_Mean
# [3] = Luminescence Cell-Based Dose Response HTS to Identify Activators of Luciferase Translation or Activity in H4 […] Cells. [Related pubchem assays: 1829 (Project Summary), 1814 (Primary HTS)]; type: functional
# H4 = experiment: Luminescence Cell-Based Dose Response HTS to Identify Activators of 5'UTR Stem-Loop Driven Prion Protein mRNA Translation in H4 Neuroglioblastoma Cells. [Related pubchem assays: 1829 (Project Summary), 1814 (Primary HTS)]; type: functional; conditions: Homo sapiens
# [4] = luciferase reporter signal suppression in cells – H4 neuroglioma cells, luminescence, dose response (AID 1990); type: functional, cell-based
# [5] = Luminescence Cell-Based Dose Response HTS to Identify Inhibitors of 5'UTR Stem-Loop Driven Prion Protein mRNA Translation in H4 Neuroglioblastoma Cells. [Related pubchem assays: 1827 (Project Summary), 1813 (Primary HTS)]; type: functional
# [6] = alpha-synuclein stem-loop luciferase translation blockers – H4 neuroglioma cells, luminescence, confirmation (AID 1988); type: functional, cell-based
# Cytochrome P450 3A4 = Cytochrome P450 3A4 (Homo sapiens, UniProt P08684);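 note: CYP3A4 tested as one member of a cytochrome P450 panel screen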
# [7] = system: Streptococcus sp. 'group A'; experiment: Streptococcus pyogenes SK(-)GAS viability under kanamycin – luminescence, BacTiterGlo, confirmation, counter-screen for streptokinase expression inhibitor project, dose response (AID 1900); type: functional, organism-based
# Streptokinase A = target: T3, Streptokinase A (Streptococcus pyogenes serotype M1, UniProt P10520); experiment: viability-normalized secreted streptokinase activity reduction – plasminogen activation absorbance, OD405, dose response (AID 1914); type: functional, Streptococcus pyogenes M1 GAS;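 note: secreted streptokinase activity via plasminogen activation per viability signal from cell pellet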
# T3 sequence (P10520 whole entry): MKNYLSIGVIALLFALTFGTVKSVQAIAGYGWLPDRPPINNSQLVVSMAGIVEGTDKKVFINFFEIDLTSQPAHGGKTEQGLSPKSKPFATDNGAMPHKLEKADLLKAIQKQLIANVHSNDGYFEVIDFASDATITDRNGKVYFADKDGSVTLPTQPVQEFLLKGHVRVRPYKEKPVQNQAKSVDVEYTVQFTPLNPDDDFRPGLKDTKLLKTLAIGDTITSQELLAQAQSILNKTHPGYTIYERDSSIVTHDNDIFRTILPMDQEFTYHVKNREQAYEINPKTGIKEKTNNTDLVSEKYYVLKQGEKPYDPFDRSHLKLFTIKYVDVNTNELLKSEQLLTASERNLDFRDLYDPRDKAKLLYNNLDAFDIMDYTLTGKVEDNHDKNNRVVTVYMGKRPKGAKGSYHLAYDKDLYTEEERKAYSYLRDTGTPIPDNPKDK
# Streptococcus = experiment: GAS UMAA2166 growth inhibition – luminescence, BacTiterGlo, counter-screen for streptokinase expression inhibitor project, dose response (AID 1915); type: functional, organism-based;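 note: potency for reduction of bacterial viability or growth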
# Cytochrome P450 2C9 = Cytochrome P450 2C9 (Homo sapiens, UniProt P11712)
# Sequence of Cytochrome P450 2C9 (P11712 whole entry): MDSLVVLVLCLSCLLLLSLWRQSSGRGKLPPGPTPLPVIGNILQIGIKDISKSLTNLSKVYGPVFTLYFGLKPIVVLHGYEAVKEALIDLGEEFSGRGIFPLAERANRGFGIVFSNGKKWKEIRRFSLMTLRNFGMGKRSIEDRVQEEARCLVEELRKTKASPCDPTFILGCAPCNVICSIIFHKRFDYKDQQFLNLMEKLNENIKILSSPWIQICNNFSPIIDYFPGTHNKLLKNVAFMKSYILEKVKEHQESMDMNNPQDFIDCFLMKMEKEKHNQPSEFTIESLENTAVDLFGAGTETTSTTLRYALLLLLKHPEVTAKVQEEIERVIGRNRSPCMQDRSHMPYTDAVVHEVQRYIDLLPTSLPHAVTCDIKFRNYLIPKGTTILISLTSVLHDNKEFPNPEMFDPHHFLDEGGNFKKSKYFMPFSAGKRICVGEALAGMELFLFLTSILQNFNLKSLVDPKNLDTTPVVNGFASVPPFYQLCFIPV
# Sequence of Cytochrome P450 2C19 (P33261 whole entry): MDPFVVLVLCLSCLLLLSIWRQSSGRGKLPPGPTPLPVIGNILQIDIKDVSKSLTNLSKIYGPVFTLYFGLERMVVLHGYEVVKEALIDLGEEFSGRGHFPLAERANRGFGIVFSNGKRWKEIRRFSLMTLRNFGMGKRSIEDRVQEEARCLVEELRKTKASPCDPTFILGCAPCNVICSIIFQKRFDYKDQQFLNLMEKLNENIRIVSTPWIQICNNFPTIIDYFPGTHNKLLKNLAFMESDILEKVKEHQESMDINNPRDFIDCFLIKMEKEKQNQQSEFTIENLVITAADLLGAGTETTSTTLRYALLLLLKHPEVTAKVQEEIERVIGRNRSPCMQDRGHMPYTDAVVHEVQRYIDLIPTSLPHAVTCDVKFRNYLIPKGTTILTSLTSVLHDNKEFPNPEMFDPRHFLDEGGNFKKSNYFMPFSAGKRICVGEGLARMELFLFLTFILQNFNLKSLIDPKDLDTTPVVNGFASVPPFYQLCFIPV
# Sequence of Cytochrome P450 3A4 (P08684 whole entry): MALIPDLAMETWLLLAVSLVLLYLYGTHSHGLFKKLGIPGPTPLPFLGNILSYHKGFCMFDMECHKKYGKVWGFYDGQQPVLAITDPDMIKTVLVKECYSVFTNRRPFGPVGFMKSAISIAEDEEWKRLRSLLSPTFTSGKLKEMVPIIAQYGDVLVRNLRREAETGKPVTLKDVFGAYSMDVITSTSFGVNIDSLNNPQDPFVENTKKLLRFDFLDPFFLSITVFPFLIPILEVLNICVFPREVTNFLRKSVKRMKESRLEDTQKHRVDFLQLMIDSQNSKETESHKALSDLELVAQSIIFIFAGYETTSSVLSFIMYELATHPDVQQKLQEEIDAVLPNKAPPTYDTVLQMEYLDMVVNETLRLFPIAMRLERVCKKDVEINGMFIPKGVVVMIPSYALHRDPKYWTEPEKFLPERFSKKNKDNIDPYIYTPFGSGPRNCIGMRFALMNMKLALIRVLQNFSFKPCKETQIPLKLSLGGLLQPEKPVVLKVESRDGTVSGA
structure (smiles),measurement,setting,value
O=C(O)[C@H]1[C@H]2CN[C@H](C(=O)O)[C@H]21,AC50,Cytochrome P450 2C19; read-out: AC50,31.6 µM (inconclusive)
same,AC50,Cytochrome P450 1A2,31.6 µM (inconclusive)
Cc1ccccc1CN(C)C(=O)COC(=O)c1ccc2[nH]c(C)c(C)c2c1,IC50,[1],> 47.1 µM (inactive)
same,EC50,[2],> 53 µM (inactive)
CCOC(=O)c1ccccc1NC1c2ccccc2C(=O)N1c1ccc(C)cn1 (stereo not drawn),EC50,[3],9.17 µM (active)
same,EC50,H4,18.5 µM (active)
O=C(/C=C\Nc1ccc(S(=O)(=O)Nc2ncccn2)cc1)c1cccc2ccccc12,EC50,[4],18.3 µM (active)
same,EC50,[5],> 120 µM (not active)
same,EC50,[6],> 120 µM (not active)
COc1ccccc1-n1c(=S)sc2c(=O)n(Cc3ccco3)c(SC)nc21,IC50,[1],> 47.1 µM (inactive)
same,EC50,[2],> 53 µM (inactive)
CCN(CC)CCCCCCCCOC(=O)c1cc(OC)c(OC)c(OC)c1,AC50,Cytochrome P450 3A4,10 µM (inconclusive)
O=C(Nc1nnc(C2CC2)s1)C1Cc2ccccc2CN1S(=O)(=O)c1ccccc1F (stereo not drawn),EC50,[3],0.123 µM (active)
same,EC50,H4,> 120 µM (not active)
CCNc1ncc2nc(-c3ccc(OC)cc3)c(=O)n(Cc3cccs3)c2n1,AC50,Cytochrome P450 1A2,0.631 µM (inconclusive)
same,AC50,Cytochrome P450 3A4,7.94 µM (inconclusive)
CCOc1ccc2c(c1)s/c(=N/C(=O)C1CC1)n2C,EC50,[3],0.508 µM (active)
same,EC50,H4,63.4 µM (active)
CCc1nc(N2CCC3(CC2)OCCO3)c2nnn(Cc3ccccc3Cl)c2n1,AC50,Cytochrome P450 3A4,15.8 µM (inconclusive)
O=[N+]([O-])c1ccc(Cl)cc1Sc1nc2ccccc2o1,EC50,[4],> 120 µM (not active)
same,EC50,[7],2.25 µM (active)
same,EC50,[5],> 120 µM (not active)
same,EC50,[6],> 120 µM (not active)
same,EC50,Streptokinase A,6.18 µM (active)
same,EC50,Streptococcus,7.26 µM (active)
COC(=O)c1cc(Br)c(=O)n(CCc2ccc(O)cc2)c1,AC50,Cytochrome P450 1A2,10 µM (inconclusive)
Cc1ccc2c(CC(=O)NCC(=O)Nc3c(C)cccc3C)coc2c1,IC50,[1],> 47.1 µM (inactive)
same,EC50,[2],> 53 µM (inactive)
CCNc1nnc(-c2ccncc2)s1,AC50,Cytochrome P450 1A2,15.8 µM (inconclusive)
same,AC50,Cytochrome P450 2C9,17.8 µM (inconclusive)
COc1ccccc1C(c1nnnn1C(C)(C)C)N1CCN(Cc2ccncc2)CC1 (stereo not drawn),AC50,Cytochrome P450 1A2,25.1 µM (inconclusive)
CCCCCC(=O)Nc1ccccc1N1CCOCC1,EC50,[4],> 120 µM (not active)
same,EC50,[5],> 120 µM (not active)
same,EC50,[6],> 120 µM (not active)
COCCCNc1nc(N)c([N+](=O)[O-])c(Nc2cc(OC)ccc2OC)n1,EC50,[4],17.4 µM (active)
same,EC50,[5],13.5 µM (active)
same,EC50,[6],17.8 µM (active)
O=C(Oc1ccccc1)N1CCC2(CCCN(c3cccc(-c4ccccc4)c3)C2)CC1,AC50,Cytochrome P450 3A4,15.8 µM (inconclusive)
S=C(Nc1ccccc1)N1CCCCC1,AC50,Cytochrome P450 2C19; read-out: AC50,17.8 µM (inconclusive)
same,AC50,Cytochrome P450 1A2,22.4 µM (inconclusive)
Cc1ccc(C(=O)N2C(=O)C(c3ccccc3)Oc3ccccc32)cc1 (stereo not drawn),EC50,[4],> 120 µM (not active)
same,EC50,[5],> 120 µM (not active)
same,EC50,[6],> 120 µM (not active)
O=C1[C@@H]2[C@H]3[C@H](O)[C@H](O)C/C(=N/OC[C@@H](O)COCc4ccco4)[C@@H]3CC[C@H]2C(=O)N1c1ccc(F)cc1F,AC50,Cytochrome P450 2C19,inconclusive
same,AC50,Cytochrome P450 3A4,3.16 µM (inconclusive)
O=c1oc2c(Cl)cc(Cl)cc2cc1-c1nnc(Nc2ccccc2F)s1,AC50,Cytochrome P450 1A2,15.8 µM (inconclusive)
CNC(=O)CN(C1CCCCC1)S(=O)(=O)c1ccc(F)cc1,IC50,[1],> 47.1 µM (inactive)
same,EC50,[2],> 53 µM (inactive)
Cc1ccc(/N=C/c2nc(/C=C/c3cccc([N+](=O)[O-])c3)oc2O)cc1,AC50,Cytochrome P450 2C19; read-out: AC50,7.94 µM (inconclusive)
same,AC50,Cytochrome P450 1A2,2 µM (inconclusive)
same,AC50,Cytochrome P450 3A4,3.16 µM (inconclusive)
same,AC50,Cytochrome P450 2C9,17.8 µM (inconclusive)
CCOC(=O)C1CCCN(S(=O)(=O)c2ccccc2)C1 (stereo not drawn),IC50,[1],> 47.1 µM (inactive)
same,EC50,[2],> 53 µM (inactive)
Nc1cc(O)nc(SCCSc2ccccc2F)n1,EC50,[4],< 0.1 µM (active)
same,EC50,[5],22.3 µM (active)
same,EC50,[6],1.29 µM (active)
CCS(=O)(=O)NCCc1cc2ccc(C)cc2nc1O,AC50,Cytochrome P450 2C19; read-out: AC50,10 µM (inconclusive)
same,AC50,Cytochrome P450 3A4,39.8 µM (inconclusive)
COCCn1c(=O)c(C)nc2cncnc21,AC50,Cytochrome P450 2C19; read-out: AC50,39.8 µM (inconclusive)
same,AC50,Cytochrome P450 1A2,15.8 µM (inconclusive)
same,AC50,Cytochrome P450 2C9,31.6 µM (inconclusive)
CCN(c1ccccc1)S(=O)(=O)c1ccc(NC(=S)NC(=O)c2cccs2)cc1,AC50,Cytochrome P450 3A4,2.24 µM (inconclusive)
CCOCCCN(CC(=O)NC1CCCC1)C(=O)C(=O)Nc1ccc2c(c1)OCCO2,IC50,[1],> 47.1 µM (inactive)
same,EC50,[2],> 53 µM (inactive)
Cc1cccc(C(=O)N2CCN(c3ccc([N+](=O)[O-])c(NCc4ccco4)c3)CC2)c1,AC50,Cytochrome P450 3A4,28.2 µM (inconclusive)
N#CNC(=Nc1cccc(F)c1)SCc1ccccc1,IC50,[1],14 µM (active)
same,EC50,[2],> 53 µM (inactive)
CCNc1ncc2nc(-c3ccc(F)cc3)c(=O)n(-c3ccccc3)c2n1,AC50,Cytochrome P450 1A2,0.398 µM (inconclusive)
CS(=O)(=O)N1CCC[C@@]2(CCN(c3ccccn3)C2)C1,AC50,Cytochrome P450 3A4,20 µM (inconclusive)
Cc1[nH]c2ccccc2c1SCCNC(=O)c1ccc(S(=O)(=O)N2CCCC2)cc1,IC50,[1],> 47.1 µM (inactive)
same,EC50,[2],> 53 µM (inactive)
CCN1CCCC1CNC(=O)CSCc1nc(-c2ccccc2C)oc1C (stereo not drawn),AC50,Cytochrome P450 2C19; read-out: AC50,28.2 µM (inconclusive)
same,AC50,Cytochrome P450 1A2,39.8 µM (inconclusive)
COc1cc(NC(=S)NCCC(c2ccccc2)c2ccccc2)c(OC)cc1Cl,IC50,[1],4.69 µM (active)
same,EC50,[2],> 53 µM (inactive)
c1ccc(CSc2nnc3c4ccccc4c4ccccc4c3n2)cc1,AC50,Cytochrome P450 3A4,3.98 µM (inconclusive)
COc1ccc(-n2cnc3sc(-c4ccccc4)cc3c2=O)cc1,AC50,Cytochrome P450 1A2,3.55 µM (inconclusive)
